Reference: ChEMBL document CHEMBL3045699, “Three-dimensional quantitative structureactivity relationship approach for the prediction of the antimycobacterial activity of 4-oxo-dihydroquinoline-3-carboxylic acid derivatives” (2008)
In brackets after ≈: the same amount, converted by molar mass.

System: Mycobacterium tuberculosis
Assay: Antimycobacterial activity against Mycobacterium tuberculosis
Type: functional
Conditions: for MIC: Mycobacterium tuberculosis

Q: What does the source list for `CC1CN(c2ccc3c(=O)c(C(=O)O)cn(-c4c(F)cccc4F)c3c2)CCN1` (configuration not stated)?
A: log(1/C): 2.922; MIC: 1.2 µM (≈ 0.478 µg/mL)

Q: How did the “log(1/C)” value turn out when `CC1CN(c2ccc3c(=O)c(C(=O)O)cn(C(C)(C)C)c3c2)CCN1` (configuration not stated) was run?
A: 3.78

Q: And the MIC?
A: 0.166 µM (≈ 0.057 µg/mL)

Q: How did the “log(1/C)” value turn out when `CC1CN(c2ccc3c(=O)c(C(=O)O)cn(C(C)(C)C)c3c2)CC(C)N1` (configuration not stated) was run?
A: 3.796

Q: What about the MIC of the same compound?
A: 0.16 µM (≈ 0.0572 µg/mL)

Q: What does the source list for `CCN1CCN(c2ccc3c(=O)c(C(=O)O)cn(C(C)(C)C)c3c2)CC1`?
A: log(1/C): 3.461; MIC: 0.346 µM (≈ 0.124 µg/mL)

Q: Which “log(1/C)” value does the source give for `CC(C)(C)n1cc(C(=O)O)c(=O)c2ccc(N3CCC(N)C3)cc21` (configuration not stated) here?
A: 3.427

Q: And the MIC?
A: 0.374 µM (≈ 0.123 µg/mL)

Q: For `CNCC1CCN(c2ccc3c(=O)c(C(=O)O)cn(C(C)(C)C)c3c2)C1` (configuration not stated), which “log(1/C)” value is on record?
A: 3.177

Q: What about the MIC of the same compound?
A: 0.666 µM (≈ 0.238 µg/mL)

Q: Which results are given for `CC(C)n1cc(C(=O)O)c(=O)c2ccc(N3CCNCC3)cc21`?
A: log(1/C): 1.921; MIC: 12 µM (≈ 3.78 µg/mL)

Q: For `CC1CN(c2ccc3c(=O)c(C(=O)O)cn(C(C)C)c3c2)CCN1` (configuration not stated), which “log(1/C)” value is on record?
A: 2.24

Q: And the MIC?
A: 5.76 µM (≈ 1.9 µg/mL)

Q: What does the source list for `CC1CN(c2ccc3c(=O)c(C(=O)O)cn(C(C)C)c3c2)CC(C)N1` (configuration not stated)?
A: log(1/C): 2.257; MIC: 5.53 µM (≈ 1.9 µg/mL)

Q: What does the source list for `CCN1CCN(c2ccc3c(=O)c(C(=O)O)cn(C(C)C)c3c2)CC1`?
A: log(1/C): 1.956; MIC: 11.1 µM (≈ 3.8 µg/mL)

Q: With `CC(C)n1cc(C(=O)O)c(=O)c2ccc(N3CCC(N)C3)cc21` (configuration not stated) as the compound, how does the “log(1/C)” value read?
A: 2.222

Q: And the MIC?
A: 6 µM (≈ 1.89 µg/mL)

Q: Which results are given for `CNCC1CCN(c2ccc3c(=O)c(C(=O)O)cn(C(C)C)c3c2)C1` (configuration not stated)?
A: log(1/C): 1.655; MIC: 22.1 µM (≈ 7.6 µg/mL)

Q: Which results are given for `O=C(O)c1cn(C2CCC2)c2cc(N3CCNCC3)ccc2c1=O`?
A: log(1/C): 2.237; MIC: 5.79 µM (≈ 1.9 µg/mL)

Q: With `CC1CN(c2ccc3c(=O)c(C(=O)O)cn(C4CCC4)c3c2)CCN1` (configuration not stated) as the compound, how does the “log(1/C)” value read?
A: 2.556

Q: What about the MIC of the same compound?
A: 2.78 µM (≈ 0.95 µg/mL)

Q: With `CC1CN(c2ccc3c(=O)c(C(=O)O)cn(C4CCC4)c3c2)CC(C)N1` (configuration not stated) as the compound, how does the “log(1/C)” value read?
A: 2.873

Q: What about the MIC of the same compound?
A: 1.34 µM (≈ 0.476 µg/mL)

Q: `CCN1CCN(c2ccc3c(=O)c(C(=O)O)cn(C4CCC4)c3c2)CC1` was tested. Which “log(1/C)” value did it give?
A: 2.271

Q: And the MIC?
A: 5.36 µM (≈ 1.9 µg/mL)

Q: What does the source list for `NC1CCN(c2ccc3c(=O)c(C(=O)O)cn(C4CCC4)c3c2)C1` (configuration not stated)?
A: log(1/C): 2.556; MIC: 2.78 µM (≈ 0.911 µg/mL)

Q: What does the source list for `CNCC1CCN(c2ccc3c(=O)c(C(=O)O)cn(C4CCC4)c3c2)C1` (configuration not stated)?
A: log(1/C): 1.97; MIC: 10.7 µM (≈ 3.81 µg/mL)

Q: With `O=C(O)c1cn(-c2c(F)cccc2F)c2cc(N3CCNCC3)ccc2c1=O` as the compound, how does the “log(1/C)” value read?
A: 2.907

Q: What about the MIC of the same compound?
A: 1.24 µM (≈ 0.478 µg/mL)

Q: For `CN1CCN(c2ccc3c(=O)c(C(=O)O)cn(-c4c(F)cccc4F)c3c2)CC1`, which “log(1/C)” value is on record?
A: 2.922

Q: And the MIC?
A: 1.2 µM (≈ 0.478 µg/mL)

Q: Which “log(1/C)” value does the source give for `CC1CN(c2ccc3c(=O)c(C(=O)O)cn(-c4c(F)cccc4F)c3c2)CC(C)N1` (configuration not stated) here?
A: 2.936

Q: And the MIC?
A: 1.16 µM (≈ 0.479 µg/mL)

Q: Which “log(1/C)” value does the source give for `CCC1CN(c2ccc3c(=O)c(C(=O)O)cn(-c4c(F)cccc4F)c3c2)CCN1` (configuration not stated) here?
A: 2.635

Q: And the MIC?
A: 2.32 µM (≈ 0.958 µg/mL)

Q: How did the “log(1/C)” value turn out when `CCN1CCN(c2ccc3c(=O)c(C(=O)O)cn(-c4c(F)cccc4F)c3c2)CC1` was run?
A: 2.635

Q: And the MIC?
A: 2.32 µM (≈ 0.958 µg/mL)

Q: What does the source list for `CC(C)N1CCN(c2ccc3c(=O)c(C(=O)O)cn(-c4c(F)cccc4F)c3c2)CC1`?
A: log(1/C): 2.649; MIC: 2.25 µM (≈ 0.96 µg/mL)

Q: For `CC(C)CN1CCN(c2ccc3c(=O)c(C(=O)O)cn(-c4c(F)cccc4F)c3c2)CC1`, which “log(1/C)” value is on record?
A: 2.06

Q: What about the MIC of the same compound?
A: 8.71 µM (≈ 3.84 µg/mL)

Q: Which results are given for `CCCCN1CCN(c2ccc3c(=O)c(C(=O)O)cn(-c4c(F)cccc4F)c3c2)CC1`?
A: log(1/C): 2.361; MIC: 4.35 µM (≈ 1.92 µg/mL)

Q: With `NC1CCN(c2ccc3c(=O)c(C(=O)O)cn(-c4c(F)cccc4F)c3c2)C1` (configuration not stated) as the compound, how does the “log(1/C)” value read?
A: 3.492

Q: And the MIC?
A: 0.322 µM (≈ 0.124 µg/mL)

Q: Which results are given for `CNCC1CCN(c2ccc3c(=O)c(C(=O)O)cn(-c4c(F)cccc4F)c3c2)C1` (configuration not stated)?
A: log(1/C): 3.237; MIC: 0.579 µM (≈ 0.239 µg/mL)

Q: What does the source list for `CCNCC1CCN(c2ccc3c(=O)c(C(=O)O)cn(-c4c(F)cccc4F)c3c2)C1` (configuration not stated)?
A: log(1/C): 2.95; MIC: 1.12 µM (≈ 0.48 µg/mL)

Q: For `CCCn1cc(C(=O)O)c(=O)c2ccc(N3CCNCC3)cc21`, which “log(1/C)” value is on record?
A: 2.203

Q: And the MIC?
A: 6.26 µM (≈ 1.98 µg/mL)

Q: What does the source list for `CCCn1cc(C(=O)O)c(=O)c2ccc(N3CCNC(C)C3)cc21` (configuration not stated)?
A: log(1/C): 2.222; MIC: 6 µM (≈ 1.98 µg/mL)

Q: What does the source list for `CCCn1cc(C(=O)O)c(=O)c2ccc(N3CC(C)NC(C)C3)cc21` (configuration not stated)?
A: log(1/C): 2.541; MIC: 2.88 µM (≈ 0.989 µg/mL)

Q: Which results are given for `CCCn1cc(C(=O)O)c(=O)c2ccc(N3CCN(CC)CC3)cc21`?
A: log(1/C): 2.842; MIC: 1.44 µM (≈ 0.494 µg/mL)

Q: What does the source list for `CCCn1cc(C(=O)O)c(=O)c2ccc(N3CCC(N)C3)cc21` (configuration not stated)?
A: log(1/C): 1.902; MIC: 12.5 µM (≈ 3.95 µg/mL)

Q: What does the source list for `CCCn1cc(C(=O)O)c(=O)c2ccc(N3CCC(CNC)C3)cc21` (configuration not stated)?
A: log(1/C): 1.638; MIC: 23 µM (≈ 7.91 µg/mL)

Q: How did the “log(1/C)” value turn out when `CC(C)(C)n1cc(C(=O)O)c(=O)c2ccc(N3CCNCC3)cc21` was run?
A: 3.427

Q: And the MIC?
A: 0.374 µM (≈ 0.123 µg/mL)

Q: With `CCC1CN(c2ccc3c(=O)c(C(=O)O)cn(C4CC4)c3c2)CCN1` (configuration not stated) as the compound, how does the “log(1/C)” value read?
A: 3.158

Q: What about the MIC of the same compound?
A: 0.696 µM (≈ 0.238 µg/mL)

Q: What does the source list for `CCN1CCN(c2ccc3c(=O)c(C(=O)O)cn(C4CC4)c3c2)CC1`?
A: log(1/C): 3.442; MIC: 0.362 µM (≈ 0.124 µg/mL)

Q: For `CC(C)N1CCN(c2ccc3c(=O)c(C(=O)O)cn(C4CC4)c3c2)CC1`, which “log(1/C)” value is on record?
A: 3.174

Q: What about the MIC of the same compound?
A: 0.669 µM (≈ 0.238 µg/mL)

Q: `CC(C)CN1CCN(c2ccc3c(=O)c(C(=O)O)cn(C4CC4)c3c2)CC1` was tested. Which “log(1/C)” value did it give?
A: 3.19

Q: What about the MIC of the same compound?
A: 0.645 µM (≈ 0.238 µg/mL)

Q: How did the “log(1/C)” value turn out when `CCCCN1CCN(c2ccc3c(=O)c(C(=O)O)cn(C4CC4)c3c2)CC1` was run?
A: 2.889

Q: And the MIC?
A: 1.29 µM (≈ 0.477 µg/mL)

Q: Which “log(1/C)” value does the source give for `CNCC1CCN(c2ccc3c(=O)c(C(=O)O)cn(C4CC4)c3c2)C1` (configuration not stated) here?
A: 2.857

Q: And the MIC?
A: 1.39 µM (≈ 0.475 µg/mL)

Q: `CCNCC1CCN(c2ccc3c(=O)c(C(=O)O)cn(C4CC4)c3c2)C1` (configuration not stated) was tested. Which “log(1/C)” value did it give?
A: 2.873

Q: And the MIC?
A: 1.34 µM (≈ 0.476 µg/mL)

Q: What does the source list for `CC(C)NCC1CCN(c2ccc3c(=O)c(C(=O)O)cn(C4CC4)c3c2)C1` (configuration not stated)?
A: log(1/C): 2.889; MIC: 1.29 µM (≈ 0.477 µg/mL)

Q: Which results are given for `CN(C)CC1CCN(c2ccc3c(=O)c(C(=O)O)cn(C4CC4)c3c2)C1` (configuration not stated)?
A: log(1/C): 2.873; MIC: 1.34 µM (≈ 0.476 µg/mL)

Q: How did the “log(1/C)” value turn out when `CC1(CN)CCN(c2ccc3c(=O)c(C(=O)O)cn(C4CC4)c3c2)C1` (configuration not stated) was run?
A: 3.777

Q: And the MIC?
A: 0.167 µM (≈ 0.057 µg/mL)

Q: For `CN1CCN(c2ccc3c(=O)c(C(=O)O)cn(C4CC4)c3c2)CC1`, which “log(1/C)” value is on record?
A: 3.14

Q: And the MIC?
A: 0.724 µM (≈ 0.237 µg/mL)

Q: How did the “log(1/C)” value turn out when `CC1CN(c2ccc3c(=O)c(C(=O)O)cn(C4CC4)c3c2)CCN1` (configuration not stated) was run?
A: 3.14

Q: What about the MIC of the same compound?
A: 0.724 µM (≈ 0.237 µg/mL)

Q: Which results are given for `CC1CN(c2ccc3c(=O)c(C(=O)O)cn(C4CC4)c3c2)CC(C)N1` (configuration not stated)?
A: log(1/C): 3.442; MIC: 0.362 µM (≈ 0.124 µg/mL)

Q: How did the “log(1/C)” value turn out when `O=C(O)c1cn(C2CC2)c2cc(N3CCNCC3)ccc2c1=O` was run?
A: 3.122

Q: And the MIC?
A: 0.754 µM (≈ 0.236 µg/mL)

Q: Which results are given for `NC1CCN(c2ccc3c(=O)c(C(=O)O)cn(C4CC4)c3c2)C1` (configuration not stated)?
A: log(1/C): 3.122; MIC: 0.754 µM (≈ 0.236 µg/mL)
